Counter-ions that a name gives are not always drawn.
How the values were obtained:
[1] = target: T1, human H3 receptor (Homo sapiens, UniProt Q9Y5N1); test: Human H3 radioligand binding ([3H]-N-alpha-methylhistamine, CHO cell membranes, SPA); settings: Table B, binding constant as letter class
T1 construct: expressed in transfected cells
Summary of the method: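 CHO cell membranes expressing human H3 (10 μg protein/well) incubated 4 h at room temperature, in the dark, with ~1 nM [3H]-N-alpha-methylhistamine, compounds (0.01 nM-30 μM) and SPA beads in 50 mM Tris HCl pH 7.4, 5 mM MgCl2, 0.1% BSA. Non-specific binding defined with 10 μM clobenpropit.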

[2] = target: T2, rat histamine H3 receptor (Rattus norvegicus, UniProt Q9QYN8); test: Rat H3 radioligand binding ([3H]-N-alpha-methylhistamine, CHO-A3 cell membranes, SPA); settings: Table B, binding constant as letter class; read-out: rat H3 Ki
T2 construct: encoding the entire 445-amino-acid rat histamine H3 receptor; expressed in transfected cells
Summary of the method: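 Membranes from CHO-A3 cells stably expressing rat H3 (10 μg protein) incubated 4 h at room temperature in 50 mM Tris-HCl pH 7.4, 5 mM MgCl2, 0.1% BSA with ~1 nM [3H]-N-alpha-methylhistamine and compound (0.01 nM-30 μM). Bound radioligand read by scintillation proximity; nonspecific binding with 10 μM clobenpropit.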

T1 sequence (Q9Y5N1 whole entry): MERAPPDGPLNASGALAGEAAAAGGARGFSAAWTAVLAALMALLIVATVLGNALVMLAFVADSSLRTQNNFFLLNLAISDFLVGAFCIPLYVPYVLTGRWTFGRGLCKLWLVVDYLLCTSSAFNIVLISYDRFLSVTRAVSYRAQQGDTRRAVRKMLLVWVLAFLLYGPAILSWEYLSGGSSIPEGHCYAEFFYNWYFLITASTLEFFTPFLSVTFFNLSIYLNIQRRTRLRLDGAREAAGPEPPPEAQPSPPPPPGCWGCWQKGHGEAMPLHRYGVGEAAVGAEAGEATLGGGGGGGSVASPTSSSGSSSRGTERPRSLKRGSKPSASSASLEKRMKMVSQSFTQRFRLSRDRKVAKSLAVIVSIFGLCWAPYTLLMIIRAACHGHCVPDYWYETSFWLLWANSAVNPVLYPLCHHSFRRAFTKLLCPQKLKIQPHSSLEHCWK
T2 sequence (Q9QYN8 whole entry): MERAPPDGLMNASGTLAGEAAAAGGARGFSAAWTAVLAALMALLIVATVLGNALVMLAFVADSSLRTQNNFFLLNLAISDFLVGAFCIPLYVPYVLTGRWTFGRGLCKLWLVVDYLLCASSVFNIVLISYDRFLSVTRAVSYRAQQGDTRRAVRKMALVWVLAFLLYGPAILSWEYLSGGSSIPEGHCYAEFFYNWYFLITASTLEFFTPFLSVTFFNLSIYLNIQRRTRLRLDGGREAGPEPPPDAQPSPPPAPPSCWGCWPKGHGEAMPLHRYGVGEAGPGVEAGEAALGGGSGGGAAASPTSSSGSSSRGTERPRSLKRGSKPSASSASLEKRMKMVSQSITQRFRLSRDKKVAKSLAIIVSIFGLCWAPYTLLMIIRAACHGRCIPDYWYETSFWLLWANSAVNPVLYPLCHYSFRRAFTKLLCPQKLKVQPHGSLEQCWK

Row | SMILES | melting point | Ki [1] [nM] | Ki [2] [nM]
1 | C[C@@H]1CCCN1CCCOc1ccc(-c2ccc(=O)n(C)n2)cc1 (as salt: HCl) [Example 1, 2-Methyl-6-{4-[3-((R)-2-methyl-pyrrolidin-1-yl)-propoxy]-phenyl}-2H-pyridazin-3-one] | 183 to 185 °C | – | –
2 | Cn1nc(-c2ccc(OCCCN3CCCCC3)cc2)ccc1=O (as salt: HCl) [Example 2, 2-Methyl-6-[4-(3-piperidin-1-yl-propoxy)-phenyl]-2H-pyridazin-3-one] | 200 to 201 °C | – | –
3 | CC(C)n1nc(-c2ccc(OCCCN3CCCCC3)cc2)ccc1=O (as salt: HCl) [Example 3, 2-Isopropy1-6-[4-(3-piperidin-1-yl-propoxy)-pheny1]-2H-pyridazin-3-one] | 118 to 122 °C | – | –
4 | C[C@@H]1CCCN1CCCOc1ccc(-c2ccc(=O)n(C)n2)cc1F (as salt: HCl) [Example 7, 6-{3-Fluoro-4-[3-((R)-2-methyl-pyrrolidin-1-yl)-propoxy]-phenyl}-2-methyl-2H-pyridazin-3-one] | 140 to 142 °C | – | –
5 | O=c1ccc(-c2ccc(OCCCN3CCCCC3)c(F)c2)nn1-c1ccccc1 (as salt: HCl) [Example 10, 6-[3-Fluoro-4-(3-piperidin-1-yl-propoxy)-phenyl]-2-phenyl-2H-pyridazin-3-one] | 230 to 232 °C | – | –
6 | C[C@@H]1CCCN1CCCOc1ccc(-c2n[nH]c(=O)c3c2CCC3)cc1 (as salt: HCl) [Example 12, 4-{4-[3-((R)-2-Methyl-pyrrolidin-1-yl)-propoxy]-phenyl}-2,5,6,7-tetrahydro-cyclopenta[d]pyridazin-1-one] | 147 °C | – | –
7 | C[C@H](COc1ccc(-c2ccc(=O)n(C)n2)cc1)CN1CCC[C@H]1C (as salt: HCl) [Example 13, 2-Methyl-6-{4-[(S)-2-methyl-3-((R)-2-methyl-pyrrolidin-1-yl)-propoxy]-phenyl}-2H-pyridazin-3-one] | 188 to 190 °C | – | –
8 | Cn1nc(-c2ccc(OCCCN3CCC[C@H]3CO)cc2)ccc1=O (as salt: HCl) [Example 14, 6-{4-[3-((S)-2-Hydroxymethyl-pyrrolidin-1-yl)-propoxy]-phenyl}-2-methyl-2H-pyridazin-3-one] | 169 °C | – | –
9 | Cn1nc(-c2ccc(OCCCN3CCC[C@@H]3CO)cc2)ccc1=O (as salt: HCl) [Example 15, 6-{4-[3-((R)-2-Hydroxymethyl-pyrrolidin-1-yl)-propoxy]-phenyl}-2-methyl-2H-pyridazin-3-one] | 166 to 167 °C | – | –
10 | C[C@@H]1CCCN1CCCOc1ccc(C2=NN(Cc3ccccc3)C(=O)CC2)cc1 (as salt: HCl) [Example 17, 2-Benzyl-6-{4-[3-((R)-2-methyl-pyrrolidin-1-yl)-propoxy]-phenyl}-4,5-dihydro-2H-pyridazin-3-one] | 56 to 58 °C | – | –
11 | C[C@@H]1CCCN1CCCOc1ccc(-c2ccc(=O)n(Cc3ccccc3)n2)cc1 (as salt: HCl) [Example 18, 2-Benzyl-6-{4-[3-((R)-2-methyl-pyrrolidin-1-yl)-propoxy]-phenyl}-2H-pyridazin-3-one] | 228 to 230 °C | – | –
12 | C[C@@H]1CCCN1CCCOc1ccc(C2=NN(c3ccccc3)C(=O)CC2)cc1 (as salt: HCl) [Example 19] | 213 to 215 °C | – | –
13 | C[C@@H]1CCCN1CCCOc1ccc(-c2ccc(=O)n(-c3ccccc3)n2)cc1 (as salt: HCl) [Example 20, 6-{4-[3-((R)-2-Methyl-pyrrolidin-1-yl)-propoxy]-phenyl}-2-phenyl-2H-pyridazin-3-one] | 82 to 86 °C | – | –
14 | CC1CCC(C)N1CCCOc1ccc(-c2nn(C(C)C)c(=O)c3ccsc23)cc1 (centres unmarked) (as salt: HCl) [Example 23, 7-{4-[3-(2,5-Dimethyl-pyrrolidin-1-yl)-propoxy]-phenyl}-5-isopropyl-5H-thieno[2,3-d]pyridazin-4-one] | 158 to 159 °C | – | –
15 | CC(C)n1nc(-c2ccc(OCCCN3CCCCC3)cc2)c2sccc2c1=O (as salt: HCl) [Example 24, 5-Isopropyl-7-[4-(3-piperidin-1-yl-propoxy)-phenyl]-5H-thieno[2,3-d]pyridazin-4-one] | 195 to 196 °C | – | –
16 | CC(C)n1nc(-c2ccc(OCCCN3CCCC(C)(C)C3)cc2)c2sccc2c1=O (as salt: HCl) [Example 25, 7-{4-[3-(3,3-Dimethyl-piperidin-1-yl)-propoxy]-phenyl}-5-isopropyl-5H-thieno[2,3-d]pyridazin-4-one] | 100 to 102 °C | – | –
17 | COC[C@@H]1CCCN1CCCOc1ccc(-c2nn(C(C)C)c(=O)c3ccsc23)cc1 (as salt: HCl) [Example 26, 5-Isopropyl-7-{4-[3-((S)-2-methoxymethyl-pyrrolidin-1-yl)propoxy]-phenyl}-5H-thieno[2,3-d]pyridazin-4-one] | 83 °C (dec.) | – | –
18 | CCN(CC)CCCOc1ccc(-c2nn(C(C)C)c(=O)c3ccsc23)cc1 (as salt: HCl) [Example 28, 7-[4-(3-Diethylamino-propoxy)-phenyl]-5-isopropyl-5H-thieno[2,3-d]pyridazin-4-one] | 188 to 190 °C | – | –
19 | CC(C)n1nc(-c2ccc(OCCCN3CCCC3)cc2)c2sccc2c1=O (as salt: HCl) [Example 29, 5-Isopropyl-7-[4-(3-pyrrolidin-1-yl-propoxy)-phenyl]-5H-thieno[2,3-d]-pyridazin-4-one] | 144 °C | – | –
20 | CC(C)n1nc(-c2ccc(OCCCN3CCC(N4CCCC4)CC3)cc2)c2sccc2c1=O (as salt: HCl) [Example 30, 5-Isopropyl-7-{4-[3-(4-pyrrolidin-1-yl-piperidin-1-yl)-propoxy]-phenyl}-5H-thieno[2,3-d]pyridazin-4-one] | 283 °C (dec.) | – | –
21 | CC(C)n1nc(-c2ccc(OCCCN3[C@H](C)CC[C@H]3C)cc2)c2sccc2c1=O (as salt: HCl) [Example 31, 7-{4-[3-((2R,5R)-2,5-Dimethyl-pyrrolidin-1-yl)-propoxy]-phenyl}-5-isopropyl-5H-thieno[2,3-d]pyridazin-4-one] | 106 °C (dec.) | – | –

More lines, now with the values ahead:

Row | melting point | Ki [1] [nM] | Ki [2] [nM] | SMILES
22 | 151 to 153 °C | – | – | CCCn1nc(-c2ccc(OCCCN3CCC[C@H]3C)cc2)c2sccc2c1=O (as salt: HCl) [Example 32, 7-{4-[3-((R)-2-Methyl-pyrrolidin-1-yl)-propoxy]phenyl}-5-propyl-5H-thieno[2,3-d]pyridazin-4-one]
23 | 84 °C (dec.) | – | – | CCCn1nc(-c2ccc(OCCCN3[C@H](C)CC[C@H]3C)cc2)c2sccc2c1=O (as salt: HCl) [Example 33, 7-{4-[3-((2R,5R)-2,5-Dimethyl-pyrrolidin-1-yl)-propoxy]-phenyl)-5-propyl-5H-thieno[2,3-d]pyridazin-4-one]
24 | 168 to 170 °C | – | – | CCCn1nc(-c2ccc(OCCCN3CCC(C)CC3)cc2)c2sccc2c1=O (as salt: HCl) [Example 34, 7-{4-[3-(4-Methyl-piperidin-1-yl)-propoxy]-phenyl}-5-propyl-5H-thieno[2,3-d]pyridazin-4-one]
25 | 207 to 209 °C | – | – | CCCn1nc(-c2ccc(OCCCN3CCC(N(C)C)CC3)cc2)c2sccc2c1=O (as salt: HCl) [Example 35, 7-{4-[3-(4-Dimethylamino-piperidin-1-yl)-propoxy]-phenyl}-5-propyl-5H-thieno[2,3-d]pyridazin-4-one]
26 | 123 °C (dec.) | – | – | CCCn1nc(-c2ccc(OCCCN3CCC[C@H]3CN3CCCC3)cc2)c2sccc2c1=O (as salt: HCl) [Example 36, 5-Propyl-7-{4-[3-((S)-2-pyrrolidin-1-ylmethyl-pyrrolidin-1-yl)-propoxy]-phenyl}-5H-thieno[2,3-d]pyridazin-4-one]
27 | 227 to 229 °C | – | – | O=c1c2ccsc2c(-c2ccc(OCCCN3CCCCC3)cc2)nn1Cc1ccc(Cl)cc1 (as salt: HCl) [Example 37, 5-(4-Chloro-benzyl)-7-[4-(3-piperidin-1-yl-propoxy)-phenyl]-5H-thieno[2,3-d]pyridazin-4-one]
28 | 223 to 224 °C | – | – | C[C@@H]1CCCN1CCCOc1ccc(-c2nn(Cc3ccc(Cl)cc3)c(=O)c3ccsc23)cc1 (as salt: HCl) [Example 38, 5-(4-Chloro-benzyl)-7-{4-[3-((R)-2-methyl-pyrrolidin-1-yl)-propoxy]-phenyl}-5H-thieno[2,3-d]pyridazin-4-one]
29 | 175 to 176 °C | – | – | Cc1cc(-c2ccc(OCCCN3CCC[C@H]3C)cc2)nn(C)c1=O (as salt: HCl) [Example 40, 2,4-Dimethyl-6-{4-[3-((R)-2-methyl-pyrrolidin-1-yl)-propoxy]-phenyl}-2H-pyridazin-3-one]
30 | 197 to 198 °C | – | – | Cc1cc(-c2ccc(OCCCN3CCCCC3)cc2)nn(C(C)C)c1=O (as salt: HCl) [Example 42, 2-Isopropyl-4-methyl-6-[4-(3-piperidin-1-yl-propoxy)-phenyl]-2H-pyridazin-3-one]
31 | 190 to 192 °C | – | – | Cc1cc(-c2ccc(OCCCN3CCC[C@H]3C)cc2)nn(Cc2ccccc2)c1=O (as salt: HCl) [Example 43, 2-Benzyl-4-methyl-6-{4-[3-((R)-2-methyl-pyrrolidin-1-yl)-propoxy]-phenyl}-2H-pyridazin-3-one]
32 | – | 0.1 to 100 | 0.1 to 100 | O=C1NN=C(c2ccc(OC3CCN(C4CCCC4)CC3)cc2)C2CC12 (centres unmarked) [Example 261, 5-[4-(1-Cyclopentyl-piperidin-4-yloxy)-phenyl]-3,4-diaza-bicyclo[4.1.0]hept-4-en-2-one]
33 | – | 0.1 to 100 | 101 to 500 | C[C@@H]1CCCN1CCCOc1ccc(-n2nc(C3CC3)ccc2=O)cc1 [Example 262, 6-Cyclopropyl-2-{4-[3-((R)-2-methyl-pyrrolidin-1-yl)-propoxy]-phenyl}-2H-pyridazin-3-one]

Source: US8586588B2, “Aryl pyridazinone derivatives and their use as H3 receptor ligands” (Cephalon, Inc., priority 2006, dated 2013)
